In patent US10130830B2, “Preservative systems comprising cationic surfactants” (Laboratorios Miret, S.A., priority 2005, dated 2018):
Where “and” joins values, the source holds several entries; their conditions need not be identical. Identical values can stand only once.

Columns and labels:
[1] = system: aerobic total count; assay: Preservative action in cooked chicken breast, aerobic total count; type: cell-based; settings: for counts (aerobic total count): for 5 weeks
Procedure: (2) Determination of Preservative Action in Chicken Breast. Process of Preparation • 1. Fresh chicken breast was diced to pieces • 2. Brine (8.70% sodium chloride and 4.35% tripolyphosphate in water) was added to the fresh chicken in an amount of 11.5 g brine per 88.5 g meat in the control preparation and 11.5 g brine and 88.4 g meat in the preparations treated with preservative. • 3. Brine and meat were mixed during 15 minutes, in the preparations treated with preservative the preservative was added after 14 minutes in an amount of 0.2 g/kg. • 4. Vacuum refrigerate tumbling was made during 30 minutes. • 5. Samples were vacuum-packed in sterile bags and they were cooked at 85° C. for 30 minutes. • 6. The cooked chicken was refrigerated at 4° C. • 7. The cooked chicken was diced in irregular shapes. • 8. Then, the nuggets were stored at 10° C. in sterile vacuum-packed bags. Analysis […] Dilutions were made in buffered peptone water. Tryptone Soya Agar was harvested with each dilution and incubated at 35° C. for 48 hours. The mean value in log cfu/g of three samples per treatment and day of analysis was calculated.

[2] = system: Aerobes; assay: Preservative action in cosmetic products (Antimicrobial Effectiveness Testing USP 24th Edition), aerobes; type: cell-based
Text: (1) Determination of Preservative Action in Cosmetic Products. […] This assay consists of the contamination of the protecting formulations with an inoculum mixture of 10^8 cfu/ml concentration, for each of the micro-organisms, and the determination of the number of viable cells in time. This inoculum mixture is composed of the following microorganisms: [table] The cosmetic composition to be analysed is divided into sterile containers with 50 g of product for each flask. Each container is inoculated with 0.5 ml of inoculum (10^8 cfu/ml). The target concentration is 10^6 cfu/ml, approximately. All the containers are kept at a temperature between 20-25° C. and are protected from light. The level of the microbial contamination is checked at 0 hours, 7 days, 14 days and 28 days. The number of colonies is evaluated by dilution in buffer peptone with the appropriate neutraliser agent of the preservative. The culture media used for counting the microorganisms are: […] (2) Determination of Preservative Action in Chicken Breast. Process of Preparation • 1. Fresh chicken breast was diced to pieces • 2. Brine (8.70% sodium chloride and 4.35% tripolyphosphate in water) was added to the fresh chicken in an amount of 11.5 g brine per 88.5 g meat in the control preparation and 11.5 g brine and 88.4 g meat in the preparations treated with preservative. • 3. Brine and meat were mixed during 15 minutes, in the preparations treated with preservative the preservative was added after 14 minutes in an amount of 0.2 g/kg. • 4. Vacuum refrigerate tumbling was made during 30 minutes. • 5. Samples were vacuum-packed in sterile bags and they were cooked at 85° C. for 30 minutes. • 6. The cooked chicken was refrigerated at 4° C. • 7. The cooked chicken was diced in irregular shapes. • 8. Then, the nuggets were stored at 10° C. in sterile vacuum-packed bags. Analysis

## CCCCCCCCCCCC(=O)N[C@@H](CCCN=C(N)N)C(=O)OCC.Cl [LAE, ethyl ester of the lauramide of the arginine monohydrochloride]
[1]; Example 14, cooked chicken, LAE 0.2 g/kg, day 28, samples 1-3
  aerobic total count: 3.4 log cfu/g
[1]; Example 14, cooked chicken, LAE 0.2 g/kg, day 28, samples 1-3, monohydrochloride
  aerobic total count: 3.2 log cfu/g and 3.5 log cfu/g
[1]; Example 14, cooked chicken, LAE 0.2 g/kg, day 35, mean of triplicate
  aerobic total count, mean: 3.8 log cfu/g
[1]; Example 14, cooked chicken, LAE 0.2 g/kg, day 35, samples 1-3, monohydrochloride
  aerobic total count: 3.6 log cfu/g and 3.8 log cfu/g and 3.9 log cfu/g
[1]; Example 14, cooked chicken, LAE 0.2 g/kg, day 42, mean of triplicate
  aerobic total count, mean: 4.0 log cfu/g
[1]; Example 14, cooked chicken, LAE 0.2 g/kg, day 42, samples 1-3, monohydrochloride
  aerobic total count: 4.0 log cfu/g and 4.1 log cfu/g
[1]; Example 14, cooked chicken, LAE 0.2 g/kg, day 49, mean of triplicate
  aerobic total count, mean: 5.1 log cfu/g
[1]; Example 14, cooked chicken, LAE 0.2 g/kg, day 49, samples 1-3, monohydrochloride
  aerobic total count: 5.3 log cfu/g and 4.9 log cfu/g and 5.0 log cfu/g
[1]; Example 14, cooked chicken, LAE 0.2 g/kg, day 56 (8 weeks), mean of triplicate
  aerobic total count, mean: 5.6 log cfu/g
[1]; Example 14, cooked chicken, LAE 0.2 g/kg, day 56, samples 1-3, monohydrochloride
  aerobic total count: 5.2 log cfu/g
[1]; Example 14, cooked chicken, LAE 0.2 g/kg
  counts (aerobic total count): below 4.0 log cfu/g
[1]; Example 16, cooked chicken, 0.20 g of LAE/kg, day 0, mean of triplicate
  aerobic total count, mean: 2.0 log cfu/g
[1]; Example 16, cooked chicken, 0.20 g of LAE/kg, day 7, mean of triplicate
  aerobic total count, mean: 2.0 log cfu/g
[1]; Example 16, cooked chicken, 0.20 g of LAE/kg, day 14, mean of triplicate
  aerobic total count, mean: 2.2 log cfu/g
[1]; Example 16, cooked chicken, 0.20 g of LAE/kg, day 21, mean of triplicate
  aerobic total count, mean: 2.8 log cfu/g
[1]; Example 16, cooked chicken, 0.20 g of LAE/kg, day 28, mean of triplicate
  aerobic total count, mean: 3.2 log cfu/g
[1]; Example 16, cooked chicken, 0.20 g of LAE/kg, day 35, mean of triplicate
  aerobic total count, mean: 3.6 log cfu/g
[1]; Example 16, cooked chicken, 0.20 g of LAE/kg, day 42, mean of triplicate
  aerobic total count, mean: 4.3 log cfu/g
[1]; Example 16, cooked chicken, 0.20 g of LAE/kg, day 49, mean of triplicate
  aerobic total count, mean: 4.9 log cfu/g
[1]; Example 16, cooked chicken, 0.20 g of LAE/kg, day 56 (8 weeks), mean of triplicate
  aerobic total count, mean: 5.5 log cfu/g
[1]; Example 16, cooked chicken, LAE 0.2 g/kg
  counts (aerobic total count): below 4.0 log cfu/g
[1]; Example 18, cooked chicken, 0.2 g of LAE/kg, day 0, mean of triplicate
  aerobic total count, mean: 2.0 log cfu/g
[1]; Example 18, cooked chicken, 0.2 g of LAE/kg, day 7, mean of triplicate
  aerobic total count, mean: 2.0 log cfu/g
[1]; Example 18, cooked chicken, 0.2 g of LAE/kg, day 14, mean of triplicate
  aerobic total count, mean: 2.4 log cfu/g
[1]; Example 18, cooked chicken, 0.2 g of LAE/kg, day 21, mean of triplicate
  aerobic total count, mean: 2.9 log cfu/g
[1]; Example 18, cooked chicken, 0.2 g of LAE/kg, day 28, mean of triplicate
  aerobic total count, mean: 3.4 log cfu/g
[1]; Example 18, cooked chicken, 0.2 g of LAE/kg, day 35, mean of triplicate
  aerobic total count, mean: 3.7 log cfu/g
[1]; Example 18, cooked chicken, 0.2 g of LAE/kg, day 42, mean of triplicate
  aerobic total count, mean: 4.1 log cfu/g
[1]; Example 18, cooked chicken, 0.2 g of LAE/kg, day 49, mean of triplicate
  aerobic total count, mean: 5.2 log cfu/g
[1]; Example 18, cooked chicken, 0.2 g of LAE/kg, day 56 (8 weeks), mean of triplicate
  aerobic total count, mean: 5.7 log cfu/g
[1]; Example 18, cooked chicken, LAE 0.2 g/kg
  counts (aerobic total count): below 4.0 log cfu/g
[2]; Example 10, oil in water emulsion with non-ionic surfactant, 0.2 g/kg, 0 days
  Aerobes count: 6.2 log cfu/g
[2]; Example 10, oil in water emulsion with non-ionic surfactant, 0.2 g/kg, 7 days
  Aerobes count: 3.5 log cfu/g
[2]; Example 10, oil in water emulsion with non-ionic surfactant, 0.2 g/kg, 14 days
  Aerobes count: 3.0 log cfu/g
[2]; Example 12, bath gel, LAE 0.2 g/kg, 0 days
  Aerobes count: 6.2 log cfu/g
[2]; Example 12, bath gel, LAE 0.2 g/kg, 7 days
  Aerobes count: 4.2 log cfu/g
[2]; Example 12, bath gel, LAE 0.2 g/kg, 14 days
  Aerobes count: 3.0 log cfu/g
[2]; Example 15, bath gel, LAE 0.2 g/kg, 0 days
  Aerobes count: 6.1 log cfu/g
[2]; Example 15, bath gel, LAE 0.2 g/kg, 7 days
  Aerobes count: 3.0 log cfu/g
[2]; Example 15, bath gel, LAE 0.2 g/kg, 14 days
  Aerobes count: 2.6 log cfu/g
[2]; Example 17, oil in water emulsion with an ionic emulsifier, 0.20 g of LAE/kg, 0 days
  Aerobes count: 6.1 log cfu/g
[2]; Example 17, oil in water emulsion with an ionic emulsifier, 0.20 g of LAE/kg, 7 days
  Aerobes count: 4.0 log cfu/g
[2]; Example 17, oil in water emulsion with an ionic emulsifier, 0.20 g of LAE/kg, 14 days
  Aerobes count: 2.9 log cfu/g
[2]; Example 19, bath gel, 0.2 g of LAE/kg, 0 days
  Aerobes count: 6.0 log cfu/g
[2]; Example 19, bath gel, 0.2 g of LAE/kg, 7 days
  Aerobes count: 3.3 log cfu/g
[2]; Example 19, bath gel, 0.2 g of LAE/kg, 14 days
  Aerobes count: 2.9 log cfu/g
